In the data set the test system is neuromast acoustic hair cells. Nature of the data set: Ototoxicity induced by gentamicin in zebrafish, DASPEI staining of neuromast acoustic hair cells. It is filed as in vivo. The following applies: 24 hours, fish aged 5 days. From the text: Zebrafish display the sensory organs on the surface of their bodies, called neuromasts. In these fish, the neuromast acoustic hair cells can be stained with DASPEI and this staining reflects the number of acoustic hair cells. These acoustic hair cells are structurally and functionally similar to the internal acoustic hair cells of the human ear.
Damage to the internal acoustic hair cells is induced in zebrafish by gentamicin. In order to test the effect of compound (1) on the protection of the acoustic hair cells damaged by gentamicin, the compound (1) was administered as a co-treatment with gentamicin. The internal acoustic hair cells are then stained and quantified.
The study is undertaken on fish aged 5 days incubated with 1 μg/ml of gentamicin for 24 hours in the presence or in the absence of compound (1). Controls are carried out in parallel; single vehicle (1% DMSO; positive control). The fish treated with gentamicin are the negative controls.
DASPEI (2,4-dimethyl-aminostyryl-N-ethyl pyridinium iodide) staining is carried out in order to visualize the acoustic hair cells in vivo (n=5 per group). Morphometric analysis is used in order to quantify the staining signal of the acoustic hair cells. The signal for DASPEI staining of the positive controls was defined as 100%. […]

For gentamicin, the “DASPEI staining signal of acoustic hair cells, % of the control signal” value (gentamicin 1 μg/ml alone (negative control)) was 31.5±4.2%. Besides, under “gentamicin 1 μg/ml alone”, the “loss of the acoustic hair cells following treatment with gentamicin” value stood at 68.5±4.9%.
